This passage reports IC50 results from patent publication US20230151003A1, “COMPOUNDS AND METHODS OF USE” (Exelixis, Inc., priority 2020, published 2023).

One may read the IC50 as the point on the concentration scale where inhibition reaches its midpoint.

One assay concerns the target Met (Homo sapiens, UniProt P08581). Kind of assay: Met autophosphorylation ELISA in PC-3 cells. The conditions noted are these: Table 3 Cellular Activities, HGF-stimulated, phospho-Met ELISA, read-out: c-Met IC50. Format: cell-based. Also on record: endogenous in cells; host or cells: PC-3 prostate cancer cells (ATCC #CRL-1435). The procedure, abridged: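 Serum-starved (3 h) PC-3 cells pre-incubated 1 h with compound (8-point dose curve, 0.3% DMSO), then stimulated with 100 ng/mL recombinant human HGF for 10 min. Lysate phospho-Met (panTyr) measured by sandwich ELISA; IC50 from 4-parameter logistic fit, normalised to DMSO (100%) and reference-inhibitor (0%) controls.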

The next assay addresses T1, Mer (Homo sapiens, UniProt Q12866).
T1 construct: host or cells: 293A cells (Thermo Fisher #R70507)
T1 sequence (Q12866 21-999): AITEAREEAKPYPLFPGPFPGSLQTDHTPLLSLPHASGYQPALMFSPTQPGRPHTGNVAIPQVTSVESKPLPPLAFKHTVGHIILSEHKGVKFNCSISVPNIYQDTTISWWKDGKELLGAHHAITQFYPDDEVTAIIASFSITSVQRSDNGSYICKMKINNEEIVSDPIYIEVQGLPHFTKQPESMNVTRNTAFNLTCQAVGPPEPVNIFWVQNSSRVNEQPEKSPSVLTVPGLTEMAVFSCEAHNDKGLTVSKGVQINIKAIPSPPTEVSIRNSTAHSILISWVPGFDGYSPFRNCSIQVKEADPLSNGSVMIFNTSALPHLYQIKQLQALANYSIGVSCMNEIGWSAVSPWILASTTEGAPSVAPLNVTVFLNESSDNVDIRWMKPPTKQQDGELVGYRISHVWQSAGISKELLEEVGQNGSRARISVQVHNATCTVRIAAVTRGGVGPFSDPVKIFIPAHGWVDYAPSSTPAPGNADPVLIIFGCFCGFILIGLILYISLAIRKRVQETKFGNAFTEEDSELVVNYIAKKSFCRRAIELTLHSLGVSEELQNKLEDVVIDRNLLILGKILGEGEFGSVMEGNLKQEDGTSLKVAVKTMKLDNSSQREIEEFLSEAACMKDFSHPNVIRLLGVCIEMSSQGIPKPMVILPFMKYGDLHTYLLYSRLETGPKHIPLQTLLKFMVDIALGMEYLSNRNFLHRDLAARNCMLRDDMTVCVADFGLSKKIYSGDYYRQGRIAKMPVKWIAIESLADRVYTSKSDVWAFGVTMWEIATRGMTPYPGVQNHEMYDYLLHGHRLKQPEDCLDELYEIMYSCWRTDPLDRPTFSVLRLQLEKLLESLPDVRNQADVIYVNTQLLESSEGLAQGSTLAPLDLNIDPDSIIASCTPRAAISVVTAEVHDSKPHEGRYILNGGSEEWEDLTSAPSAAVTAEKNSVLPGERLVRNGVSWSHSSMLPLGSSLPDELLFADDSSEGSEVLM
Kind of assay: Mer autophosphorylation ELISA in transient transfected 293A cells. The conditions noted are these: Table 3 Cellular Activities; MERTK-transfected 293A cells, phospho-Mer ELISA. In kind it is cell-based. The procedure, abridged: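 293A cells transiently transfected with human MERTK DNA, replated after 24 h, then treated 1 h with 8-point compound dilutions in serum-free medium (0.3% DMSO). Lysates assayed by phospho-Mer sandwich ELISA against phospho-Mer standard; DMSO = 100%, reference inhibitor = 0% activity; IC50 by 4-parameter logistic fit.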
Background: In an ELISA, binding on a coated surface is turned into a signal by an enzyme label.

Chain of Met (P08581 25-1390): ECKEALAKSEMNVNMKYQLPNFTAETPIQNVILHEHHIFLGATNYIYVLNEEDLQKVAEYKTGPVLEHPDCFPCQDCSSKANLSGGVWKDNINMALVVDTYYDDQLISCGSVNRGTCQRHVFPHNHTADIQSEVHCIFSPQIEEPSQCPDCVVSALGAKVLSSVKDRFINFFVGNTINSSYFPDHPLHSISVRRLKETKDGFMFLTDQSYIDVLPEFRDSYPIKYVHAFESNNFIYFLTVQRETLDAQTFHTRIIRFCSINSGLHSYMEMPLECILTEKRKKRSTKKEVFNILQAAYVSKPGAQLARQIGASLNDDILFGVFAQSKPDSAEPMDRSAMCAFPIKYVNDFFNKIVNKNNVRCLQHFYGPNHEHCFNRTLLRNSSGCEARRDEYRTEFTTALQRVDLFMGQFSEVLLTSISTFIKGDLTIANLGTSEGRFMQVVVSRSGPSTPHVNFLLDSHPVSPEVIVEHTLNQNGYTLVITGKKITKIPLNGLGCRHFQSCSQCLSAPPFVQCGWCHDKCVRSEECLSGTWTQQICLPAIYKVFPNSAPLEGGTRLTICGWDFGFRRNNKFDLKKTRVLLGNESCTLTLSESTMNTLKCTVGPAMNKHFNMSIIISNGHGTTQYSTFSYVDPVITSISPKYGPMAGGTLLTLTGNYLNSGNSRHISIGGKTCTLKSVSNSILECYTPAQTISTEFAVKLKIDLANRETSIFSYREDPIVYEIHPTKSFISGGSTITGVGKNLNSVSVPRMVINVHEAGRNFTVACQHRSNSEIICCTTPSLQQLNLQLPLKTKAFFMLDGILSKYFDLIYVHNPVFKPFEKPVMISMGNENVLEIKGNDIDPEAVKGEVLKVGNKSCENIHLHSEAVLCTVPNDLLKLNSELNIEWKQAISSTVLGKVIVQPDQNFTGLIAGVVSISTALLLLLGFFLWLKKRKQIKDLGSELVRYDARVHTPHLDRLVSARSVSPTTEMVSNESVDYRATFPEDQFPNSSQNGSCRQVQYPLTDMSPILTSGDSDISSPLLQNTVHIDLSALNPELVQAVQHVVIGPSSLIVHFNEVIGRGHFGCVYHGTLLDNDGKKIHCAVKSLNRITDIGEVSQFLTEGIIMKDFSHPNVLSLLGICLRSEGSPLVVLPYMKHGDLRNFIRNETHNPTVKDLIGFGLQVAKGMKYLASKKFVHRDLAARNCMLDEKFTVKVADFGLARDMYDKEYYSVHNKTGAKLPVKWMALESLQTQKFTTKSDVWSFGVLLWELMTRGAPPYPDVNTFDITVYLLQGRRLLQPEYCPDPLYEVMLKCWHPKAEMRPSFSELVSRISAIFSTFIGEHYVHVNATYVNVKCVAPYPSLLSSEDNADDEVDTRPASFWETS

As to `COc1cc2nccc(Oc3ccc(NC(=O)c4c(C)ncc(-c5ncc(F)cc5C)c4O)cc3F)c2nc1OC` [Compound 200, N-[4-[(6,7-Dimethoxy-1,5-naphthyridin-4-yl)oxy]-3-fluorophenyl]-5-(5-fluoro-3-methylpyridin-2-yl)-4-hydroxy-2-methylpyridine-3-carboxamide], the IC50 at Met and against Mer was not above 100 nM each time.

Turning to `COc1cc2nccc(Oc3ccc(NC(=O)c4cnc(C)c(-c5ccco5)n4)cc3F)c2nc1OC` [Compound 269, N-[4-[(6,7-Dimethoxy-1,5-naphthyridin-4-yl)oxy]-3-fluorophenyl]-6-(furan-2-yl)-5-methylpyrazine-2-carboxamide], the half-inhibitory concentration (IC50) on Met and against Mer was not above 100 nM throughout.

Consider `CCc1c(C(=O)Nc2ccc(Oc3ccnc4cc(OC)c(OC)nc34)c(F)c2)c(=O)c(-c2ccco2)c(C)n1C` [Compound 324, N-[4-[(6,7-Dimethoxy-1,5-naphthyridin-4-yl)oxy]-3-fluorophenyl]-2-ethyl-5-(furan-2-yl)-1,6-dimethyl-4-oxopyridine-3-carboxamide], for which the IC50 at Met and against Mer was not above 100 nM each time.

Take `COc1cc2nccc(Oc3ccc(NC(=O)c4c5n(cc(-c6cccs6)c4=O)CCOC5)cc3)c2nc1OC` [Compound 299, N-[4-[(6,7-Dimethoxy-1,5-naphthyridin-4-yl)oxy]phenyl]-8-oxo-7-thiophen-2-yl-3,4-dihydro-1H-pyrido[2,1-c][1,4]oxazine-9-carboxamide]: the concentration for half-maximal inhibition (IC50) at Met and at Mer was not above 100 nM in each case.

Take `COc1cc2nccc(Oc3ccc(NC(=O)c4cn(C)c(C)c(-c5ccc(F)cn5)c4=O)cc3)c2nc1OC` [Compound 86, N-[4-[(6,7-Dimethoxy-1,5-naphthyridin-4-yl)oxy]phenyl]-5-(5-fluoropyridin-2-yl)-1,6-dimethyl-4-oxopyridine-3-carboxamide]: the concentration for half-maximal inhibition (IC50) at Met and on Mer was not above 100 nM each time.

With `COc1cc2nccc(Oc3ccc(NC(=O)c4cnc(C)c(-c5ccc(F)cn5)c4O)cc3F)c2nc1OC` [Compound 85, N-[4-[(6,7-Dimethoxy-1,5-naphthyridin-4-yl)oxy]-3-fluorophenyl]-5-(5-fluoropyridin-2-yl)-4-hydroxy-6-methylpyridine-3-carboxamide], the half-maximal inhibitory concentration (IC50) at Met and on Mer was not above 100 nM each time.

In the case of `COc1cc2nccc(Oc3ccc(NC(=O)c4cccn(-c5ccc(F)cn5)c4=O)cc3F)c2nc1OC` [Compound 42, N-[4-[(6,7-Dimethoxy-1,5-naphthyridin-4-yl)oxy]-3-fluorophenyl]-1-(5-fluoropyridin-2-yl)-2-oxopyridine-3-carboxamide], the IC50 at Met and against Mer was not above 100 nM each time.

Consider `Cc1ccc(C(=O)Nc2ccc(Oc3ccnc4cccnc34)c(F)c2)c(=O)n1-c1ccc(F)cn1` [Compound 48, N-[3-Fluoro-4-(1,5-naphthyridin-4-yloxy)phenyl]-1-(5-fluoropyridin-2-yl)-6-methyl-2-oxopyridine-3-carboxamide], for which the IC50 at Met and on Mer was not above 100 nM each time.

For `COc1cc2nccc(Oc3ccc(NC(=O)c4cc(C(C)=O)c(C)n(-c5ccco5)c4=O)cc3F)c2nc1OC` [Compound 236, 5-Acetyl-N-[4-[(6,7-dimethoxy-1,5-naphthyridin-4-yl)oxy]-3-fluorophenyl]-1-(furan-2-yl)-6-methyl-2-oxopyridine-3-carboxamide], the IC50 on Met was 300 to 1000 nM; at Mer, not above 100 nM.

Regarding `COc1cc2nccc(Oc3ccc(NC(=O)c4ccc(C)n(-c5cccnn5)c4=O)cc3F)c2nc1OC` [Compound 234, N-[4-[(6,7-Dimethoxy-1,5-naphthyridin-4-yl)oxy]-3-fluorophenyl]-6-methyl-2-oxo-1-pyridazin-3-ylpyridine-3-carboxamide], the 50% inhibitory concentration (IC50) on Met and on Mer was not above 100 nM throughout.

For the compound `COc1cc2nccc(Oc3ccc(NC(=O)c4c(C)ncc(-c5ccccn5)c4O)cc3F)c2nc1OC` [Compound 69, N-[4-[(6,7-Dimethoxy-1,5-naphthyridin-4-yl)oxy]-3-fluorophenyl]-4-hydroxy-2-methyl-5-pyridin-2-ylpyridine-3-carboxamide], the half-inhibitory concentration (IC50) at Met and against Mer was not above 100 nM throughout.

`COc1cc2nccc(Oc3ccc(NC(=O)c4ccc(C)n(-c5cccnc5)c4=O)cc3F)c2nc1OC` [Compound 222, N-[4-[(6,7-Dimethoxy-1,5-naphthyridin-4-yl)oxy]-3-fluorophenyl]-6-methyl-2-oxo-1-pyridin-3-ylpyridine-3-carboxamide]: the concentration for half-maximal inhibition (IC50) on Met and against Mer was not above 100 nM each time.

For `COCCOc1cc2nccc(Oc3ccc(NC(=O)c4c(C)n(C)c(C)c(-c5cc6ccccc6o5)c4=O)cc3F)c2nc1OC` [Compound 263, 5-(1-Benzofuran-2-yl)-N-[3-fluoro-4-[[6-methoxy-7-(2-methoxyethoxy)-1,5-naphthyridin-4-yl]oxy]phenyl]-1,2,6-trimethyl-4-oxopyridine-3-carboxamide], the IC50 on Met fell in the range of 300 to 1000 nM; on Mer, 100 to 300 nM.

Consider `COc1cc2nccc(Oc3ccc(NC(=O)c4c5n(cc(-c6cc(C)cs6)c4=O)CCOC5)cc3)c2nc1OC` [Compound 303, N-[4-[(6,7-Dimethoxy-1,5-naphthyridin-4-yl)oxy]phenyl]-7-(4-methylthiophen-2-yl)-8-oxo-3,4-dihydro-1H-pyrido[2,1-c][1,4]oxazine-9-carboxamide], for which the half-inhibitory concentration (IC50) was 100 to 300 nM at Met and not above 100 nM against Mer.

On to `COc1cnc2c(Oc3ccc(NC(=O)c4ccc(C)n(-c5ccc(F)cn5)c4=O)cc3F)ccnc2c1` [Compound 45, N-[3-Fluoro-4-[(7-methoxy-1,5-naphthyridin-4-yl)oxy]phenyl]-1-(5-fluoropyridin-2-yl)-6-methyl-2-oxopyridine-3-carboxamide], for which the IC50 at Met and against Mer was not above 100 nM in each case.

Take `COc1cc2nccc(Oc3ccc(NC(=O)c4ccc(C)n(-c5ncc(F)cc5C)c4=O)cc3F)c2nc1OC` [Compound 51, N-[4-[(6,7-Dimethoxy-1,5-naphthyridin-4-yl)oxy]-3-fluorophenyl]-1-(5-fluoro-3-methylpyridin-2-yl)-6-methyl-2-oxopyridine-3-carboxamide]: the IC50 at Met and against Mer was not above 100 nM in each case.

Turning to `COc1cnc2c(Oc3ccc(NC(=O)c4ccc(C)n(-c5ncc(F)cc5C)c4=O)cc3F)ccnc2c1` [Compound 52, N-[3-Fluoro-4-[(7-methoxy-1,5-naphthyridin-4-yl)oxy]phenyl]-1-(5-fluoro-3-methylpyridin-2-yl)-6-methyl-2-oxopyridine-3-carboxamide], the concentration for half-maximal inhibition (IC50) at Met and against Mer was not above 100 nM throughout.

As for `COc1cc2nccc(Oc3ccc(NC(=O)c4cnc(C)c(-c5ccco5)c4O)cc3F)c2cc1OC` [Compound 259, N-[4-(6,7-Dimethoxyquinolin-4-yl)oxy-3-fluorophenyl]-5-(furan-2-yl)-4-hydroxy-6-methylpyridine-3-carboxamide], the 50% inhibitory concentration (IC50) on Met and at Mer was not above 100 nM in each case.

Regarding `COc1cc2nccc(Oc3ccc(NC(=O)c4ccc(C)n(-c5cc[n+]([O-])cc5)c4=O)cc3F)c2nc1OC` [Compound 231, N-[4-[(6,7-Dimethoxy-1,5-naphthyridin-4-yl)oxy]-3-fluorophenyl]-6-methyl-1-(1-oxidopyridin-1-ium-4-yl)-2-oxopyridine-3-carboxamide], the IC50 on Met and at Mer was not above 100 nM each time.
